In BigSolDB 2.1:

CCOc1ccccc1C(N)=O
solubility (mole fraction)
Details	288.15 K	293.15 K	298.15 K	303.15 K	308.15 K	313.15 K	318.15 K	323.15 K	328.15 K
in 1,4-dioxane	0.0116	0.0144	0.0175	0.0221	0.0272	0.0341	0.0427	0.0527	0.0653
in 2-butanone	0.0124	0.015	0.0179	0.0218	0.0268	0.0335	0.0413	0.0501	0.0609
in DMF	0.0485	0.0566	0.0653	0.0754	0.0875	0.101	0.117	0.133	0.151
in acetone	0.0124	0.0153	0.0184	0.0226	0.0277	0.0344	0.0424	0.0507	0.0611
in ethyl formate	0.00842	0.0103	0.0122	0.0151	0.0188	0.0238	0.0293	0.0354	0.0429
in isopropanol	0.00616	0.00748	0.00916	0.0122	0.0157	0.0205	0.0265	0.0339	0.0423
in methyl acetate	0.00747	0.00924	0.0114	0.0142	0.0182	0.023	0.0285	0.0349	0.0428
in n-butanol	0.00781	0.00989	0.0122	0.0158	0.0199	0.0251	0.0322	0.0402	0.0498
in n-butyl acetate	0.00505	0.00603	0.00705	0.0089	0.011	0.0134	0.0165	0.0201	0.0245
in n-pentanol	0.00858	0.0106	0.0131	0.0165	0.0207	0.026	0.0329	0.0406	0.0504
in n-propyl acetate	0.00566	0.0069	0.0082	0.0101	0.0122	0.015	0.0185	0.0227	0.0271
in sec-butanol	0.00735	0.00924	0.0117	0.0153	0.0198	0.0256	0.0326	0.0411	0.0518
